Read-outs that look alike come from different tables or passages of the source.
Tests used:
[1] = system: HCT116 isogenic IDH1-R132H mutant cells; test: Cellular 2-HG assay using HCT116 mutant IDH1 cells (R132H), RapidFire mass spectrometry; format: cell-based; settings: Homo sapiens, read-out: HCT116 IDH1 R132H IC50 (Range)
Experimental: (§1) Example 106—Cellular 2-HG assay using HCT116 mutant IDH1 cells
(§2) HCT116 isogenic IDH1-R132H and IDH1-R132C mutant cells were cultured in growth media (McCoy's 5 A, 10% fetal bovine serum, 1× antibiotic-antimycotic solution and 0.3 mg/mL G418) in 5% CO2 in an incubator at 37° C. To prepare the assay, cells were trypsinized and resuspended in assay media (McCoy's 5 A with no L-glutamine, 10% fetal bovine serum, 1× antibiotic-antimycotic solution and 0.3 mg/mL G418). An aliquot of 10,000 cells/100 μL was transferred to each well of a clear 96-well tissue culture plate. The cells were incubated in 5% CO2 at 37° C. in an incubator overnight to allow for proper cell attachment. An aliquot of 50 μL of compound containing assay media were then added to each well and the assay plate was kept in 5% CO2 at 37° C. in an incubator for 24 hours. The media was then removed from each well and 150 μL of a methanol/water mixture (80/20 v/v) was added to each well. The plates were kept at −80° C. freezer overnight to allow for complete cell lysis. An aliquot of 125 μL of extracted supernatant was analyzed by RapidFire high-throughout-mass spectrometry (Agilent) to determine the cellular 2-HG level. The IC50 of a given compound was calculated by fitting the dose response curve of cellular 2-HG inhibition at a given concentration with the four parameter logistic equation.

[2] = biological target: IDH1-R132C recombinant protein (Homo sapiens (Human), UniProt O75874, R132C); test: IDH1-R132C enzymatic assay (inhibition of NADPH consumption, diaphorase/resazurin readout); format: biochemical; settings: read-out: Enzyme IDH1 R132C IC50 (Range)
Outline: (§3)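 Compound was preincubated 15 min at 25 °C with 30 nM IDH1-R132H or 10 nM IDH1-R132C in Tris pH 7.5 buffer with MgCl2, BSA and Triton X-100. Reaction with 2 mM α-ketoglutarate and 20 μM NADPH (solution concentrations) ran 45 min at 25 °C. Remaining NADPH was detected via diaphorase/resazurin fluorescence (ex 535/em 590 nm), and IC50 came from four-parameter fits.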

[3] = system: HCT116 isogenic IDH1-R132C mutant cells; test: Cellular 2-HG assay using HCT116 mutant IDH1 cells (R132C), RapidFire mass spectrometry; format: cell-based; settings: Homo sapiens, read-out: HCT116 IDH1 R132C IC50 (Range)
Experimental: as §1, §2

[4] = biological target: IDH1-R132H recombinant protein (Homo sapiens (Human), UniProt O75874, R132H); test: IDH1-R132H enzymatic assay (inhibition of NADPH consumption, diaphorase/resazurin readout); format: biochemical; settings: read-out: Enzyme IDH1 R132H IC50 (Range)
Outline: as §3

[5] = HCT-116, cellular 2-HG level, HCT116 IDH1-R132H cells, 24 hours
[6] = HCT-116, cellular 2-HG level, HCT116 IDH1-R132C cells, 24 hours

Sequence of IDH1-R132C recombinant protein (O75874 whole entry R132C): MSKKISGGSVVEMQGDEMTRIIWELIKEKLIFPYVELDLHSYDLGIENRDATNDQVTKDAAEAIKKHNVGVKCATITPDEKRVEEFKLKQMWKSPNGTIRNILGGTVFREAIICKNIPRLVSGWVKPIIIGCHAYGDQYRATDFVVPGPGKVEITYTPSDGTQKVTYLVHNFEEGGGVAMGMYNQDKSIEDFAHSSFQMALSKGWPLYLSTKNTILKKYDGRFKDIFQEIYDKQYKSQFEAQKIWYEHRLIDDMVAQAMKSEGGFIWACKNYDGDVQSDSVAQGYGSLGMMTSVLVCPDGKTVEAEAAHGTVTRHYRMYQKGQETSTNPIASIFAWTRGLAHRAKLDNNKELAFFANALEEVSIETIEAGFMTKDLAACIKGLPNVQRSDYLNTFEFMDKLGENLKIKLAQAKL
Sequence of IDH1-R132H recombinant protein (O75874 whole entry R132H): as the sequence (O75874 whole entry R132C) above, with C132H counted along it

SMILES | IC50 [1, 5] | IC50 [2] | IC50 [3, 6] | IC50 [4] | IC50 ([1]; HCT-116, 24 h) | IC50 ([3]; HCT-116, 24 h)
COC(=O)Nc1ccnc(N[C@@H](C)c2cc3cc(Cl)c(OCc4ccccn4)cc3[nH]c2=O)n1 [Compound I-154, (S)-methyl (2-((1-(6-Chloro-2-oxo-7-(pyridin-2-ylmethoxy)-1,2-dihydroquinolin-3-yl)ethyl)amino)pyrimidin-4-yl)carbamate] | < 100 nM | < 100 nM | < 100 nM | < 100 nM |  | 
COc1nc(N[C@@H](C)c2cc3cc(Cl)cnc3[nH]c2=O)ncc1C#N [Compound I-155, (S)-2-((1-(6-chloro-2-oxo-1,2-dihydro-1,8-naphthyridin-3-yl)ethyl)amino)-4-methoxy pyrimidine-5-carbonitrile] | 100 to 1000 nM | 1000 to 10000 nM | 1000 to 10000 nM | < 100 nM |  | 
COc1nc(N[C@H](C)c2nc3cc(Cl)ccc3[nH]c2=O)ncc1C#N [Compound I-157] |  | 1000 to 10000 nM |  | 100 to 1000 nM | < 100 nM | 100 to 1000 nM
COc1nc(N[C@@H](C)c2cc3cc(Cl)c(O[C@H](C)c4ccccn4)cc3[nH]c2=O)ncc1C#N [Compound I-158, 2-(((S)-1-(6-chloro-2-oxo-7-((R)-1-(pyridin-2-yl)ethoxy)-1,2-dihydroquinolin-3-yl)ethyl)amino)-4-methoxypyrimidine-5-carbonitrile] | < 100 nM | < 100 nM | 100 to 1000 nM | < 100 nM |  | 
COc1nc(N[C@@H](C)c2cc3cc(Cl)c(OCC4CC4)cc3[nH]c2=O)ncc1C#N [Compound I-159, (S)-2-((1-(6-chloro-7-(Cyclopropylmethoxy)-2-oxo-1,2-dihydroquinolin-3-yl)ethyl)amino)-4-methoxypyrimidine-5-carbonitrile] | < 100 nM | < 100 nM | < 100 nM | < 100 nM |  | 
CC(=O)Nc1ccnc(N[C@@H](C)c2cc3cc(Cl)cc(F)c3[nH]c2=O)n1 [Compound I-160, (S)—N-(2-((1-(6-Chloro-8-fluoro-2-oxo-1,2-dihydroquinolin-3-yl)ethyl)amino)pyrimidin-4-yl)acetamide] | < 100 nM | < 100 nM | < 100 nM | < 100 nM |  | 
COc1nc(N[C@@H](C)c2cc3cc(Cl)cc(F)c3[nH]c2=O)ncc1C#N [Compound I-161, (S)-2-((1-(6-Chloro-8-fluoro-2-oxo-1,2-dihydroquinolin-3-yl)ethyl)amino)-4-methoxy pyrimidine-5-carbonitrile] | < 100 nM | 100 to 1000 nM | 100 to 1000 nM | < 100 nM |  | 
COc1nc(N[C@@H](C)c2cc3cc(Cl)c(Br)cc3[nH]c2=O)ncc1C#N [Compound I-162, (S)-2-((1-(7-bromo-6-chloro-2-oxo-1,2-dihydroquinolin-3-yl)ethyl)amino)-4-methoxypyrimidine-5-carbonitrile] | < 100 nM | 100 to 1000 nM | 100 to 1000 nM | < 100 nM |  | 
CC(=O)Nc1ccnc(N[C@@H](C)c2cc3cc(Cl)c(F)cc3[nH]c2=O)n1 [Compound I-179, (S)—N-(2-((1-(6-chloro-7-fluoro-2-oxo-1,2-dihydroquinolin-3-yl)ethyl)amino)pyrimidin-4-yl)acetamide] | < 100 nM | < 100 nM | < 100 nM | < 100 nM |  | 
C[C@H](Nc1nccc(NC(=O)C2CC2)n1)c1cc2cc(Cl)c(F)cc2[nH]c1=O [Compound I-180, (S)—N-(2-((1-(6-chloro-7-fluoro-2-oxo-1,2-dihydroquinolin-3-yl)ethyl)amino)pyrimidin-4-yl)cyclopropanecarboxamide] | 100 to 1000 nM | 100 to 1000 nM | 100 to 1000 nM | 100 to 1000 nM |  | 
COc1nc(N[C@@H](C)c2cc3cc(Cl)c(F)cc3[nH]c2=O)ncc1C#N [Compound I-181] |  | 100 to 1000 nM |  | < 100 nM | 100 to 1000 nM | 100 to 1000 nM
CC(=O)Nc1ccnc(N[C@@H](C)c2cc3cc(Cl)cnc3[nH]c2=O)n1 [Compound I-182] | 100 to 1000 nM | 100 to 1000 nM | 100 to 1000 nM | < 100 nM |  | 
C[C@H](Nc1nccc(-n2nnnc2C2CC2)n1)c1cc2cc(Cl)cnc2[nH]c1=O [Compound I-184] | 100 to 1000 nM | 100 to 1000 nM | 100 to 1000 nM | 100 to 1000 nM |  | 
